# In US20070185055A1, “Method for treating cachexia with retinoid ligands” (priority 2006, published 2007):
# Experiments:
# [1] = system: SCID mice transplanted with small cell lung cancer cells H446; test: Cachexia in SCID mice bearing metastatic H446 tumors; assay type: in vivo; conditions: daily oral dose 3 mg/kg or 10 mg/kg, versus vehicle only (FIG. 3)
# Experimental: (§1) FIGS. 1-5 comprise charts or graphs disclosing the results of tests obtained with experimental animals that have been inoculated with a xenograft of non-small cell lung cancer cells H292 or with small cell lung cancer cells H446, and which were then orally administered the RXR agonist Compound 1 referred to above.
# In the experiment shown in FIG. 3, SCID mice were subcutaneously transplanted with small cell lung cancer cells H446. A first group of the animals was given a daily oral dose of 3 mg per kilogram body weight of Compound 1 in a suitable pharmaceutically acceptable vehicle, and a second group was given a daily oral dose of 10 mg per kilogram body weight in the same vehicle. A group of the control animals was given the vehicle only.
# [2] = system: nude mice bearing H292 xenografts (non-small cell lung cancer cells H292); test: Cachexia in nude mice bearing H292 xenografts; assay type: in vivo; conditions: for body weight of the animals: s.c. H292 xenograft
# From the text: as §1, with “above. […]” for “above.”
# Specifically, in the experiment shown in FIG. 1 nude mice were subcutaneously transplanted with non-small cell lung cancer cells H292. A group of the animals was given a daily oral dose of 10 mg per kilogram body weight of Compound 1 in a suitable pharmaceutically acceptable vehicle. A group of the control animals was given the vehicle only.
# In the experiment shown in FIG. 4 the right gastrocnemius muscle of the control animals and of the animals treated with Compound 1 in a daily dose of 10 mg/kg, as described in connection with FIG. 1, was weighed after the animals had been sacrificed.
# In the experiment shown in FIG. 5, the food intake of nude mice with and without H292 xenografts was evaluated. Mice with H292 xenografts had reduced appetite compared with normal control. […] Therefore, adminstration of Compound 1 reverses poor appetite in cachectic animals. […]
# [3] = system: AIDS and cancer patients; conditions: cited from earlier work
# [4] = patients, J. Clin. Oncol., 20: 567 (2002)
# [5] = AIDS as well as cancer patients, literature
smiles,measurement,setting,value
CC(/C=C/[C@@H]1C[C@]1(C)c1ccc2c(c1)C(C)(C)CCC2(C)C)=C\C(=O)O [Compound 1],body weight of the animals,[1],significantly greater body weights
same,weight of the right gastrocnemius muscle,"[2]; H292 xenograft mice, 62 days after transplantation, daily dose 10 mg/kg, versus control (FIG. 4)",prevents muscle wasting
same,average food intake,"[2]; nude mice with H292 xenografts, daily dose 10 mg/kg, compared with normal mice (FIG. 5)",equal amount of food intake as normal mice
same,percentage of survival,"[2]; nude mice, H292 xenograft, daily oral dose 10 mg/kg, versus vehicle (FIG. 2)",significantly better survival rate
same,body weight of the animals,"[2]; nude mice, daily oral dose 10 mg/kg, versus vehicle only (FIG. 1)",significantly greater body weights
CCC[C@]1(c2ccc3c(c2)C(C)(C)CCC3(C)C)C[C@H]1/C=C/C(C)=C/C(=O)O [Compound 2],average food intake,"[2]; nude mice bearing H292 xenografts, daily dose 50 mg/kg, versus vehicle (FIG. 7)",significantly larger food intake
same,body weight of the animals,"[2]; nude mice, daily oral dose 50 mg/kg, versus vehicle only (FIG. 6)",significantly greater body weights
CCCCCc1cc(O)c2c(c1)OC(C)(C)[C@@H]1CCC(C)=C[C@@H]21 [Dronabinol],appetite,[3]; [4],improved appetite
same,mood and body weight improvement,[3]; [4],no effect
CC(=O)O[C@]1(C(C)=O)CC[C@H]2[C@@H]3C=C(C)C4=CC(=O)CC[C@]4(C)[C@H]3CC[C@@]21C [Megestrol acetate],body weight gain,[3]; [5],at least five pounds
same,primary body component that increased,[3]; [5],"fat, but not lean body mass"
C[C@]12COC(=O)C[C@@H]1CC[C@@H]1[C@@H]2CC[C@@]2(C)[C@H]1CC[C@]2(C)O [Oxandrolone],body weight,"[3]; patients, literature, for Oxandrolone might have represented primary edema",moderate increase of body weight
